Values quoted from earlier work in patent US6107321A, “Diazabicyclooctane derivatives having selective 5-HT1Dalpha agonist activity” (Merck Sharp & Dohme Ltd., priority 1995, dated 2000).

Key:
[1] = test system: human 5-HT1D.sbsb.α and 5-HT1D.sbsb.β receptor subtypes; settings: cf. WO-A-91/17174, Table 1
[2] = test system: humans; settings: therapeutic doses

Q: With `CNS(=O)(=O)Cc1ccc2[nH]cc(CCN(C)C)c2c1` [sumatriptan] as the compound, how does the “discrimination between the human 5-HT1Dα and 5-HT1Dβ receptor subtypes” value [1] read?
A: barely discriminates

Q: What about the adverse cardiovascular events [2] of the same compound?
A: certain adverse cardiovascular events
